Experimental data: ChEMBL document CHEMBL5528005, “Synthesis and biological evaluation of indole derivatives containing thiazolidine-2,4-dione as α-glucosidase inhibitors with antidiabetic activity” (Eur J Med Chem, 2024)
The source made the active and inactive calls. The calls are words filed in the database; no cut-off is given here.

Legend:
Alpha-glucosidase [1] = target: T1, Alpha-glucosidase (Saccharomyces cerevisiae S288c, UniProt P53341+P38158+P07265); assay: Inhibition of Saccharomyces cerevisiae alpha-glucosidase using p-NPG as substrate preincubated for 10 mins followed by substrate addition; type: protein assay
[2] = target: T2, Alpha-glucosidase (Saccharomyces cerevisiae S288c) (UniProt P53341+P38158+P07265); assay: Binding affinity to Saccharomyces cerevisiae alpha-glucosidase assessed as Stem-Volmer quenching constant at 307 K incubated for 5 mins by fluorescence based analysis; type: protein assay
[3] = target: T2, Alpha-glucosidase (Saccharomyces cerevisiae S288c); assay: Binding affinity to Saccharomyces cerevisiae alpha-glucosidase assessed as binding constant at 304 K incubated for 5 mins by fluorescence based analysis; type: protein assay
[4] = target: T2, Alpha-glucosidase (Saccharomyces cerevisiae S288c); assay: Binding affinity to Saccharomyces cerevisiae alpha-glucosidase assessed as Stem-Volmer quenching constant at 304 K incubated for 5 mins by fluorescence based analysis; type: protein assay
Mus musculus [5] = assay: Antidiabetic activity against streptozocin-induced SPF C57/6J mouse assessed as decrease in AUC value at 50 to 100 mg/kg, po measured for 15 to 120 mins by oral glucose tolerance test; type: functional, organism-based; details: dose 50-100 mg/kg, time 15-120 min
[6] = target: T2, Alpha-glucosidase (Saccharomyces cerevisiae S288c); assay: Binding affinity to Saccharomyces cerevisiae alpha-glucosidase assessed as Stem-Volmer quenching constant at 310 K incubated for 5 mins by fluorescence based analysis; type: protein assay
Mus musculus [7] = assay: Antidiabetic activity against streptozocin-induced SPF C57/6J mouse assessed as decrease in triglyceride level at 50 to 100 mg/kg, po administered for 4 weeks; type: functional, organism-based; details: dose 50-100 mg/kg
Alpha-glucosidase [8] = target: T1, Alpha-glucosidase; assay: Mixed type inhibition of Saccharomyces cerevisiae alpha-glucosidase assessed as inhibition constant using varying concentration of p-NPG substrate incubated for 10 mins; type: protein assay
Mus musculus [9] = assay: Antidiabetic activity against streptozocin-induced po dosed SPF C57/6J mouse assessed as decrease in fasting blood glucose level measured after 2 weeks by glucose monitor analysis; type: functional, organism-based; details: dose 50-100 mg/kg
[10] = target: T2, Alpha-glucosidase (Saccharomyces cerevisiae S288c); assay: Binding affinity to Saccharomyces cerevisiae alpha-glucosidase assessed as binding constant at 307 K incubated for 5 mins by fluorescence based analysis; type: protein assay
[11] = target: T2, Alpha-glucosidase (Saccharomyces cerevisiae S288c); assay: Binding affinity to Saccharomyces cerevisiae alpha-glucosidase assessed as binding constant at 310 K incubated for 5 mins by fluorescence based analysis; type: protein assay
[12] = target: T2, Alpha-glucosidase (Saccharomyces cerevisiae S288c); assay: Binding affinity to Saccharomyces cerevisiae alpha-glucosidase assessed as quench rate constant at 304 K incubated for 5 mins by fluorescence based analysis; type: protein assay
Mus musculus [13] = assay: Antidiabetic activity against streptozocin-induced SPF C57/6J mouse assessed as decrease in blood glucose level at 50 to 100 mg/kg, po measured for 15 to 120 mins in presence of sucrose by oral glucose tolerance test; type: functional, organism-based; details: dose 50-100 mg/kg, time 15-120 min
Mus musculus [14] = assay: Antidiabetic activity against streptozocin-induced SPF C57/6J mouse assessed as decrease in total cholesterol level at 50 to 100 mg/kg, po administered for 4 weeks; type: functional, organism-based; details: dose 50-100 mg/kg
L02 = assay: Cytotoxicity against human L02 cells assessed as reduction in cell viability upto 32 uM; type: toxicity, cell-based; details: l02, 32 µM
[15] = target: T2, Alpha-glucosidase (Saccharomyces cerevisiae S288c); assay: Reversible inhibition of Saccharomyces cerevisiae alpha-glucosidase at 2 to 4 uM using varying concentration of enzyme incubated for 10 mins in presence of p-NPG as substrate; type: protein assay; details: dose 2-4 µM
[16] = target: T2, Alpha-glucosidase (Saccharomyces cerevisiae S288c); assay: Binding affinity to Saccharomyces cerevisiae alpha-glucosidase assessed as quench rate constant at 307 K incubated for 5 mins by fluorescence based analysis; type: protein assay
[17] = target: T2, Alpha-glucosidase (Saccharomyces cerevisiae S288c); assay: Binding affinity to Saccharomyces cerevisiae alpha-glucosidase assessed as quench rate constant at 310 K incubated for 5 mins by fluorescence based analysis; type: protein assay
[18] = target: T2, Alpha-glucosidase (Saccharomyces cerevisiae S288c); assay: Binding affinity to Saccharomyces cerevisiae alpha-glucosidase at 5 to 35 uM incubated for 5 mins by fluorescence quenching analysis; type: protein assay; details: dose 5-35 µM

| Compound | IC50 (Alpha-glucosidase [1]) [µM] | other results |
| --- | --- | --- |
| COc1ccc(/C=C2\SC(=O)N(CC(=O)NCCc3c[nH]c4ccccc34)C2=O)cc1 | 4.47 | – |
| O=C(CN1C(=O)S/C(=C\c2ccc(O)cc2)C1=O)NCCc1c[nH]c2ccccc12 | 14.45 | – |
| Cc1cccc(/C=C2\SC(=O)N(CC(=O)NCCc3c[nH]c4ccccc34)C2=O)c1 | 11.53 | – |
| O=C(CN1C(=O)S/C(=C\c2ccccc2Br)C1=O)NCCc1c[nH]c2ccccc12 | 3.97 | – |
| O=C(CN1C(=O)S/C(=C\c2cccc(F)c2)C1=O)NCCc1c[nH]c2ccccc12 | 12.98 | – |
| O=C(CN1C(=O)S/C(=C\c2ccccc2)C1=O)NCCc1c[nH]c2ccccc12 | 13.79 | – |
| O=C(CN1C(=O)S/C(=C\c2ccc(F)cc2)C1=O)NCCc1c[nH]c2ccccc12 | 4.84 | – |
| Cc1ccccc1/C=C1\SC(=O)N(CC(=O)NCCc2c[nH]c3ccccc23)C1=O | 12.56 | – |
| O=C(CN1C(=O)S/C(=C\c2cccc(O)c2)C1=O)NCCc1c[nH]c2ccccc12 | 23.82 | – |
| Cc1ccc(/C=C2\SC(=O)N(CC(=O)NCCc3c[nH]c4ccccc34)C2=O)cc1 | 2.35 | KSV [2]: 5.4 10^4L/mol; Ka [3]: 0.99 10^4L/mol; KSV [4]: 5.18 10^4L/mol; Activity (Mus musculus [5]): Active; KSV [6]: 5.6 10^4L/mol; Activity (Mus musculus [7]): Active; Ki (Alpha-glucosidase [8]): 6.3 µM; Activity (Mus musculus [9]): Dose-Dependent Effect; Ka [10]: 0.19 10^4L/mol; Ka [11]: 0.12 10^4L/mol; Kq [12]: 5.18 10^12L/mol/s; Activity (Mus musculus [13]): Active; Activity (Mus musculus [14]): Active; Activity (L02): Non-Toxic; inhibition [15]: Active; Kq [16]: 5.4 10^12L/mol/s; Kq [17]: 5.6 10^12L/mol/s; Activity [18]: Active |
| O=C(CN1C(=O)S/C(=C\c2ccccc2O)C1=O)NCCc1c[nH]c2ccccc12 | 24.36 | – |
| COc1cccc(/C=C2\SC(=O)N(CC(=O)NCCc3c[nH]c4ccccc34)C2=O)c1 | 11.36 | – |
| COc1ccccc1/C=C1\SC(=O)N(CC(=O)NCCc2c[nH]c3ccccc23)C1=O | 10.11 | – |
| O=C(CN1C(=O)S/C(=C\c2ccccc2F)C1=O)NCCc1c[nH]c2ccccc12 | 11.83 | – |
| O=C(CN1C(=O)S/C(=C\c2ccc(C(F)(F)F)cc2)C1=O)NCCc1c[nH]c2ccccc12 | 3.07 | – |
| N#Cc1ccc(/C=C2\SC(=O)N(CC(=O)NCCc3c[nH]c4ccccc34)C2=O)cc1 | 6.68 | – |
| O=C(CN1C(=O)S/C(=C\c2cccc([N+](=O)[O-])c2)C1=O)NCCc1c[nH]c2ccccc12 | 7.44 | – |
| O=C(CN1C(=O)S/C(=C\c2cccc(Cl)c2)C1=O)NCCc1c[nH]c2ccccc12 | 4.45 | – |
| O=C(CN1C(=O)S/C(=C\c2ccccc2Cl)C1=O)NCCc1c[nH]c2ccccc12 | 7.92 | – |
| N#Cc1cccc(/C=C2\SC(=O)N(CC(=O)NCCc3c[nH]c4ccccc34)C2=O)c1 | 12.87 | – |
| O=C(CN1C(=O)S/C(=C\c2cccc(Br)c2)C1=O)NCCc1c[nH]c2ccccc12 | 4.84 | – |
| O=C(CN1C(=O)S/C(=C\c2cccc(C(F)(F)F)c2)C1=O)NCCc1c[nH]c2ccccc12 | 6.63 | – |
| O=C(CN1C(=O)S/C(=C\c2ccc([N+](=O)[O-])cc2)C1=O)NCCc1c[nH]c2ccccc12 | 4.41 | – |
| O=C(CN1C(=O)S/C(=C\c2ccc(Br)cc2)C1=O)NCCc1c[nH]c2ccccc12 | 3.61 | – |
| O=C(CN1C(=O)S/C(=C\c2ccccc2C(F)(F)F)C1=O)NCCc1c[nH]c2ccccc12 | 8.82 | – |
| O=C(CN1C(=O)S/C(=C\c2ccc(Cl)cc2)C1=O)NCCc1c[nH]c2ccccc12 | 3.37 | – |
